Source: patent US11161888B2, “Method for regulating targeting of Cyclin Y (CCNY) protein to synapses” (KOREA INSTITUTE OF SCIENCE AND TECHNOLOGY, priority 2018, dated 2021)
Entries after “also recorded” stand apart in the source; their conditions may differ.

What was measured:
CCNY = test: Acyl-biotinyl exchange (ABE) assay of CCNY palmitoylation in HEK293T cells; assay type: cell-based; conditions: 4 hours prior to ABE assay, HEK293T cells (FIG. 3B)
Description: (§1) All images are single-plane images. […] The scale bars are 5 (B and C) show the results of an acyl-biotinyl exchange (ABE) assay. CCNY-WT-EGFP or CCNY-Mut(C7, 8S)-EGFP were overexpressed in HEK293T cells, and the cells were subsequently treated with a palmitoylation blocker, 2-bromopalmitate (2-BP, 30 μM or 100 μM), for 4 hours prior to the ABE assay.
(§2) The ABE assay was performed as previously described (Wan et al., 2007) with minor modifications. Briefly, HEK293T cells were transfected with CCNY-WT-EGFP, CCNY-Mut(C7,8S)-EGFP, or PSD-95-WT-EGFP. PSD-95-WT-EGFP was transfected with or without DHHC2-HA. Twenty four hours after transfection, the cells were lysed in lysis buffer (150 mM NaCl, 50 mM Tris, 5 mM EDTA, protease inhibitor cocktail, 1 mM PMSF, pH 7.4) with 1.7% Triton X-100 and 10 mM N-ethylmaleimide (NEM) for 1 hour at 4° C. The cell lysates were centrifuged at 250 g for 5 minutes at 4° C., and the resultant supernatants were applied to the chloroform-methanol (CM) precipitation methodology. […] The eluted samples in loading buffer (50 mM Tris-HCl, pH 6.8, 5% β-mercaptoethanol, 2% SDS, 0.01% bromophenol blue) were then boiled for 10 minutes at 95° C., applied to SDS-PAGE, and analyzed by immunoreactions with anti-CCNY (Proteintech Group), anti-PSD-95 (Thermo Scientific) and anti-GFP (Roche). […]

PSD-95 = test: Acyl-biotinyl exchange (ABE) assay of PSD-95 palmitoylation (positive control) in HEK293T cells; assay type: cell-based; conditions: in the presence of 2-bromopalmitate, HEK293T cells (FIG. 3C)
Description: as §1, §2

[1] = test system: hippocampal neurons overexpressing CCNY-WT-EGFP; test: Confocal imaging of CCNY-WT-EGFP membrane association in neurons treated with palmitoylation blocker; assay type: cell-based, rat; conditions: 2-bromopalmitate 100 μM, 4 hours, hippocampal neurons (FIG. 1D)
Description: Specifically, (A) is a confocal single-plane image of hippocampal neurons overexpressing EGFP-tagged CCNY-WT. […] The scale bars are 20 μm (top) and 5 μm (bottom). […] The scale bar is 20 μm.
HEK 293T cells were grown in DMEM (Gibco) supplemented with 10% fetal bovine serum. Hippocampal neuronal cultures were prepared from E18 Sprague-Dawley (SD) rat embryos. The hippocampal neurons were grown on poly-D-lysine ([…]; Sigma)-coated 18 mm glass coverslips and maintained for 10 to 21 days in vitro (DIV) in 12-well plates containing B27 and Glutamax-supplemented Neurobasal medium (Gibco) at 37° C. in an incubator equilibrated with 5% CO2 (Cho et al., 2015). The culture contains glial cells that were grown up to 70% to 80% confluency, where further growth was inhibited by treatment of 5-fluoro-2′-deoxyuridine (FUdR) ([…]; Sigma).
Neurons were transfected at 10 to 15 DIV using Lipofectamine 2000 (Invitrogen) for 1 to 6 days, and then experiments were performed at 14 to 17 DIV. All experiments handling animals and their embryos were performed in accordance with the guidelines and regulations of the Korea Institute of Science and Technology (KIST). All experimental protocols were approved by the KIST Institutional Animal Care and Use Committee (IACUC; approval number 2018-048). […]

With `CCCCCCCCCCCCCCC(Br)C(=O)O` (stereo not shown) [2-bromopalmitate] the “palmitoylation of CCNY-WT-EGFP (ABE assay)” value (CCNY; 2-bromopalmitate 30 μM) was “no palmitoylation was detected; also recorded: blocked”, the “palmitoylation of CCNY-WT-EGFP (ABE assay)” value (CCNY; 2-bromopalmitate 100 μM) was “no palmitoylation was detected; also recorded: blocked” and the “palmitoylation of PSD-95 (ABE assay)” value (PSD-95) was “inhibited”. The “membrane-associated localization of CCNY-WT-EGFP on the neuronal cell surface” value [1] was “altered”.
